# Read-outs that look alike come from different tables or passages of the source.
# How the values were obtained:
# [1] = In vitro cytotoxicity with L-6 cells (Alamar Blue); format: cell-based, rat; details: rat, Cytotoxicity L-6 Cells IC50
# Protocol: (§1) All newly synthesized compounds were tested for their antiplasmodial activity against the chloroquine-sensitive strain Plasmodium falciparum NF54. Cytotoxicity was determined using rat skeletal myofibroblasts (L-6 cells). As standards chloroquine and podophyllotoxin were used.
# (§2) In vitro cytotoxicity was determined using a primary cell line of rat skeletal myofibroblasts. The assay was performed in 96-well microtiter plates, each well containing 0.1 mL of RPMI 1640 medium, supplemented with 0.1% L-glutamine (200 mM) and 10% fetal bovine serum, as well as 4000 L-6 cells. Serial drug dilutions of 11 3-fold dilution steps (covering a range from 100–0.002 µg/mL) were prepared. After 70 h of incubation time, the plates were inspected under an inverted microscope to ensure sterile conditions and growth of the controls. […] Podophyllotoxin (Sigma P4405) was used as control.
# L-6 cells = test: In vitro cytotoxicity with L-6 cells (Alamar Blue); format: cell-based, rat; details: rat, 72 h
# Protocol: as §1, §2
# [2] = Parallel artificial membrane permeability assay (PAMPA); details: pH 7.4
# Protocol: The PAMPA was performed using a Corning Gentest Pre-coated PAMPA Plate System at a pH of 7.4. It consists of 96-well polystyrene plates, whereas the donor-plate (bottom plate) is a conventional 96-well microtiter plate. The base of the acceptor-plate (top plate) consists of a porous membrane. The pores are lined with a lipid-oil-lipid trilayer. Stock solutions (10 mM) of each test compound were prepared in DMSO or MeOH and then further diluted to a final concentration of 200 µM with phosphate-buffered saline (PBS) at a pH of 7.4. Compound solutions were then added to the wells of the donor plate and pure PBS was added to each well of the acceptor plate. Compounds and negative control (pure PBS) were tested in quadruplicates. Donor and acceptor plate were coupled and incubated at ambient temperature for 5 h. After that, the plates were separated and solutions from each well of both plates were transferred onto 96-well UV-Star Microplates (Greiner Bio-One). The UV-absorption was measured at different wavelengths (between 200 and 300 nm) by a SpectraMax M3 UV plate reader (Molecular Devices). The concentrations were received from a calibration curve for each substance. The plates were analyzed at a wavelength were the R^2 value of the calibration curve was higher than 0.99 [48]. […] (2) cequ=cDt* VD+cAt* VA/VD+VA where: • cD(t)—compound concentration in donor well at time t.
# Recovery of compounds from donor and acceptor wells (mass retention) was calculated as shown in the equation below. Data were only accepted when recovery exceeded 70%. (3) R=1−cDt∗ VD+cAt∗ VA/c0∗ VD where: • R—mass retention (%); • cA(t)—compound concentration in acceptor well at time t; • cD(t)—compound concentration in donor well at time t; • c0—initial compound concentration in donor well; • VD—donor well volume; • VA—acceptor well volume.
# CYP3A4 = biological target: T1, CYP3A4 (Homo sapiens, UniProt P08684); test: Cytochrom P450 3A4 inhibition assay (P450-Glo, luciferin-IPA); format: in vitro ADME; details: recombinant human CYP3A4 Supersomes (+ oxidoreductase + b5), probe luciferin-IPA, stock solutions diluted to 20 µM, pH 7.4, triplicate
# T1 construct: purchased Corning, Glendale, AZ, USA
# T1 sequence (P08684 2-503 limits assumed): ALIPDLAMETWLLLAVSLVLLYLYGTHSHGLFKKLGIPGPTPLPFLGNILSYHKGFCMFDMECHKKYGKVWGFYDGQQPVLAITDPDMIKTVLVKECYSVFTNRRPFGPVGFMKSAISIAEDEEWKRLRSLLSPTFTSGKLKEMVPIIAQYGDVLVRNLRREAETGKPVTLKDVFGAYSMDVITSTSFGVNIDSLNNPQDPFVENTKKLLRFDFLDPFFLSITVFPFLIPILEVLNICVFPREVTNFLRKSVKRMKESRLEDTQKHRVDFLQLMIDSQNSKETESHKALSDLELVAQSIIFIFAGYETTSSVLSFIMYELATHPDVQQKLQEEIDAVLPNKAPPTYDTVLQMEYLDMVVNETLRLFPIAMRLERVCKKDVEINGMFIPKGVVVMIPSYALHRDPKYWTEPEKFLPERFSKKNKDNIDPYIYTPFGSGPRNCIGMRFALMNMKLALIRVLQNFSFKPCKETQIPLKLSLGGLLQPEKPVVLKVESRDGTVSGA
# Protocol: The CYP3A4 inhibition assay was performed using 96-well White Plates (Greiner Bio-One) at a pH of 7.4. […] Stock solutions were further diluted to a final concentration of 20 µM using water (HPLC grade). The luciferin IPA stock solution (3 mM) was diluted to a final concentration of 0.3 mM using water (HPLC grade). The CYP3A4 reaction mixture was prepared by mixing water (HPLC grade) with potassium phosphate buffer (1 M), luciferin IPA (0.3 mM) and CYP3A4 membrane (1 pmol/µL). The control reaction mixture was prepared using water (HPLC grade), potassium phosphate buffer (1 M), luciferin IPA (0.3 mM) and membrane without CYP activity (1 pmol/µL). Solutions A and B of the NADPH regeneration system were mixed and HPLC grade water was added. The reconstituted luciferin detection reagent was prepared by mixing the reconstituted buffer with esterase with the luciferin detection reagent. Then, solutions of test compounds and standard were added to the wells of the 96-well White Plate, each was tested in triplicate. The CYP3A4 reaction mixture was added to each well and the plate was incubated for 10 min at room temperature. After that, the NADPH regeneration system was added, inducing the reaction followed by an incubation time of 10 min at ambient temperature. By adding the reconstituted luciferin detection reagent, the reaction was terminated, and a luminescent signal was formed. Luminescence was measured by a SpectraMax M3 UV plate reader (Molecular Devices). The relative light units (RLU) were received from a calibration curve with beetle luciferin. […] The CYP3A4 inhibition (%) was calculated from the RLU.
# P. falciparum NF54 = test: In vitro microplate assay against P. falciparum NF54 (3H-hypoxanthine incorporation, erythrocytic stages); format: cell-based, Plasmodium falciparum; details: average of four determinations, read-out: P.f. NF54 IC50
# Protocol: as §1
# In vitro activity against erythrocytic stages of P. falciparum was determined with a ^3H-hypoxanthine incorporation assay, using the chloroquine sensitive NF54 strain [44]. Chloroquine (Sigma C6628) was used as standard. Test compounds were dissolved in DMSO at 10 mg/mL and added to parasite cultures incubated in RPMI 1640 medium without hypoxanthine, supplemented with HEPES (5.94 g/L, NaHCO3 (2.1 g/L), neomycin (100 U/mL), Albumax (5 g/L) and washed human red blood cells A^+ at 2.5% hematocrit (0.3% parasitemia). Serial drug dilutions of 11 3-fold dilution steps (covering a range from 100–0.002 µg/mL) were prepared. The 96-well plates were incubated at a humidified atmosphere at 37 °C; 4% CO2, 3% O2, 93% N2. After 48 h, 0.05 mL of ^3H-hypoxanthine (=0.5 µCi) was added to each well. The plates were incubated for another 24 h under the same conditions. Then, the plates were harvested with a Betaplate cell harvester (Wallac, Zurich, Switzerland). The red blood cells were transferred onto glass fiber filter and washed with distilled water. The dried filters were inserted into a plastic foil with 10 mL of scintillation fluid and counted in a Betaplate liquid scintillation counter. IC50 values were determined from sigmoidal inhibition curves by linear regression using Microsoft Excel. Chloroquine was used as control.
# P. falciparum = details: long-term in vitro, sub-lethal doses, cited from earlier work
# P. falciparum 3D7-A10 = system: P. falciparum 3D7-A10; design: method as in PMID 31813848, PMID 32682267; details: erythrocytic cycle of 40 h, different drug concentrations; cited from earlier work
# [3] = Plasmodium falciparum, NF54, chloroquine-sensitive strain NF54, blood stages
# [4] = chloroquine-sensitive strain NF54, blood stages
"Papp at 5 h, 200 µM [2]","inhibition at 10 min, 20 µM (CYP3A4)",IC50 (P. falciparum NF54; [3]),IC50 (P. falciparum NF54; [4]),"IC50 (P. falciparum NF54; chloroquine-sensitive strain NF54, blood stages, H, N-pivaloylpiperazinyl)",melting point,SMILES,IC50 at 72 h [1],IC50 (L-6 cells),resistance development (P. falciparum),resistance development (P. falciparum; listed as MMV030666),stage specific activity (P. falciparum 3D7-A10)
1.22 ×10⁻⁶ cm/s,80%,1.22 µM,–,–,–,"CC(C)(C)OC(=O)N1CCN(c2ccc(NC(=O)c3cccc(C(F)(F)F)c3Oc3ccccc3)cc2)CC1 [Compound 54, tert-Butyl-4-{4-[2-phenoxy-3-(trifluoromethyl)benzamido]phenyl}piperazine-1-carboxylate]",124 µM,185 µM,–,–,–
0.23 ×10⁻⁶ cm/s,94%,0.617 to 0.659 µM,0.617 µM,–,–,"CC(C)(C)C(=O)N1CCN(c2ccccc2NC(=O)c2cccc(C(F)(F)F)c2Oc2ccc(F)cc2)CC1 [Compound 19, N-{2-[4-(2,2-Dimethylpropanoyl)piperazin-1-yl]phenyl}-2-(4-fluorophenoxy)-3-(trifluoromethyl)benzamide]",185 to 190 µM,185 µM,–,–,–
1.05 ×10⁻⁶ cm/s,82%,6.58 to 15.6 µM,6.58 µM,–,–,"O=CN1CCN(c2ccccc2NC(=O)c2cccc(C(F)(F)F)c2Oc2ccc(F)cc2)CC1 [Compound 18, 2-(4-Fluorophenoxy)-N-[2-(4-formylpiperazin-1-yl)phenyl]-3-(trifluoromethyl)benzamide]",31.8 to 35.4 µM,31.8 µM,–,–,–
0.24 ×10⁻⁶ cm/s,89%,–,0.58 µM,0.269 µM,–,"CC(C)(C)C(=O)N1CCN(c2ccc(NC(=O)c3cccc(C(F)(F)F)c3Oc3ccc(F)cc3)cc2)CC1 [Compound 39, N-{4-[4-(2,2-Dimethylpropanoyl)piperazin-1-yl]phenyl}-2-(4-fluorophenoxy)-3-(trifluoromethyl)benzamide]",78 to 99.6 µM,99.6 µM,–,–,–
1.17 ×10⁻⁶ cm/s,–,3.17 µM,–,–,–,"CC(C)(C)C(=O)N1CCN(c2cccc(NC(=O)c3cccc(C(F)(F)F)c3Oc3ccc(F)cc3)c2)CC1 [Compound 38, N-{3-[4-(2,2-Dimethylpropanoyl)piperazin-1-yl]phenyl}-2-(4-fluorophenoxy)-3-(trifluoromethyl)benzamide]",78 to 99.6 µM,78 µM,–,–,–
2.48 ×10⁻⁶ cm/s,–,2.89 µM,–,–,142 to 145 °C,"CC(C)(C)N1CCN(c2ccccc2NC(=O)c2cccc(C(F)(F)F)c2Oc2ccc(F)cc2)CC1 [Compound 20, 2-(4-Fluorophenoxy)-N-[2-(4-tert-butylpiperazin-1-yl)phenyl]-3-(trifluoromethyl)benzamide]",34.7 µM,–,–,–,–

SMILES,"Papp at 5 h, 200 µM [2]","inhibition at 10 min, 20 µM (CYP3A4)",IC50 (P. falciparum NF54; [3]),IC50 (P. falciparum NF54; [4]),"IC50 (P. falciparum NF54; chloroquine-sensitive strain NF54, blood stages, H, N-pivaloylpiperazinyl)",melting point,IC50 at 72 h [1],IC50 (L-6 cells),resistance development (P. falciparum),resistance development (P. falciparum; listed as MMV030666),stage specific activity (P. falciparum 3D7-A10)
"CC(C)(C)OC(=O)N1CCN(c2ccccc2NC(=O)c2cccc(C(F)(F)F)c2Oc2ccc(F)cc2)CC1 [Compound 1, tert-Butyl-4-{2-[2-(4-fluorophenoxy)-3-(trifluoromethyl)benzamido]phenyl}piperazine-1-carboxylate]",2.37 ×10⁻⁶ cm/s,87%,0.413 µM,–,–,–,131 µM,–,"did neither acquire resistances, nor cross-resistances",development of resistant parasites could not be observed,peak activity in sub-micromolar concentrations on late stage trophozoites

# Source: publication PMC8625693, “Synthesis and Structure-Activity Relationships of New 2-Phenoxybenzamides with Antiplasmodial Activity” (Pharmaceuticals, 2021)
